In US20250064762A1, “A SUBSTITUTED AROMATIC DICARBONIC ACID AMIDE AS AN INHIBITOR OF THE FERROPTOSIS SUPPRESSOR PROTEIN-1 (FSP1)” (JULIUS-MAXIMILIANS-UNIVERSITÄT WÜRZBURG, priority 2021, published 2025):
“Also recorded” adds a separate entry of the source.

Columns and labels:
murine FSP1 = target: T1, murine FSP1 (Mus musculus, UniProt Q8BUE4); experiment: In vitro FSP1 oxidoreductase (NADH consumption) assay, murine FSP1; format: biochemical; details: resazurine or coQ1 as electron acceptor
T1 construct: His6 (N, cleaved yes); made in house; host or cells: Escherichia coli BL21 pG-Tf2
T1 sequence (Q8BUE4 1-373): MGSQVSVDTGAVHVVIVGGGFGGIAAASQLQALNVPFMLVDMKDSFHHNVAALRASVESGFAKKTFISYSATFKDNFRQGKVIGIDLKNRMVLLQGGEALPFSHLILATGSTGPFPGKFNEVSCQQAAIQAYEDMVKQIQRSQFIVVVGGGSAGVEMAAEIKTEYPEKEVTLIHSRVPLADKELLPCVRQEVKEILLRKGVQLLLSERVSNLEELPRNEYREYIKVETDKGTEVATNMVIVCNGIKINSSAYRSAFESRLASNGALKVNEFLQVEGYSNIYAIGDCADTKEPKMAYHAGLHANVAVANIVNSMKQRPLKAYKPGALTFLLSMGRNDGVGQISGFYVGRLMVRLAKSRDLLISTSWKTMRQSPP
Procedure: (§1) FSP1 activity assays were performed using recombinant, purified murine or human FSP1, NADH, and resazurine or coenzyme-Q1 (coQ1) as electron acceptor molecules. The following conditions were used: 200 μM resazurine were reduced with 750 nM mFSP1 or 150 nM hFSP1; 100 μM coQ1 was reduced with 400 nM mFSP1; and 137 μM coQ1 were reduced with 200 nM hFSP1. The consumption of NADH (500 μM) was measured at 340 nm in phosphate-buffered saline (80 mM Na3PO4, 300 mM NaCl; pH 7.0) at room temperature on a CLARIOstar microplate reader (BMG Labtech). Initial rates were determined, and data were fitted by linear regression using GraphPad Prism software, version 9.1.2.
(§2) In order to determine inhibition of FSP1 by CPBA, FSP1 activity was measured […] either CPBA or iFSP1 as a positive control. In vitro FSP1 oxidoreductase activity assays were performed using recombinant, purified murine or human FSP1, NADH, and resazurine or coenzyme-Q1 (coQ1) as electron acceptor molecules as described above (see FIG. 19).
(§3) In vitro FSP1 activity assays with human (see FIG. 22 C) or murine (see FIG. 22 D) FSP1 were performed as described above. Shown are NADH consumption assays using recombinant, purified human or mouse FSP1 (hFSP1, mFSP1) and resazurine or coenzyme-Q1 (CoQ1) as electron acceptor molecules.

human FSP1 = target: T2, human FSP1 (Homo sapiens, UniProt Q9BRQ8); experiment: In vitro FSP1 oxidoreductase (NADH consumption) assay, human FSP1; format: biochemical; details: resazurine or coQ1 as electron acceptor
T2 construct: His6 (N, cleaved yes); made in house; host or cells: Escherichia coli BL21 pG-Tf2
T2 sequence (Q9BRQ8 1-373): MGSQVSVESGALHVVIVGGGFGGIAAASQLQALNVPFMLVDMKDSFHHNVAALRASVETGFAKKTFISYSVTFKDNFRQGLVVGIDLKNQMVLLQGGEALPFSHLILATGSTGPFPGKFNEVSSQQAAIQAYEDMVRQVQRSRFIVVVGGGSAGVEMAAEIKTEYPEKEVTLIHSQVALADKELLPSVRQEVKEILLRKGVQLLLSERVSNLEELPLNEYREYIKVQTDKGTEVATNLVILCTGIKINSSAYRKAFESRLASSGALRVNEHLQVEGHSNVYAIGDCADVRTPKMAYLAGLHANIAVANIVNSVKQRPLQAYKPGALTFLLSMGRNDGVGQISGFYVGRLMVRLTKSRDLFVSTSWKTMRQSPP
Procedure: as §1, §2, §3

[1] = test system: mouse embryonic fibroblasts (MEFs), Hepa 1-6 mouse hepatocellular carcinoma cells; experiment: Concentration-dependent toxicity of FIN56 with CPBA or iFSP1 in mouse cells; format: cell-based; details: for sensitization to FIN56-induced ferroptosis in mouse cells: MEFs or Hepa 1-6 cells
Procedure: Cells were seeded onto 96-well plates (5,000 cells per well), and treated with serial dilutions of ferroptosis-inducing compounds (erastin, BSO, RSL3, FIN56) or cytotoxic drugs (staurosporine, nocodazole, tunicamycin, paclitaxel, etoposide, menadione, rotenone, FCCP, carboplatin) in the absence or presence of CPBA or iFSP1 (100 μM or 10 μM, respectively; unless stated otherwise) or the DMSO solvent control. Ferroptotic cell death was evaluated by incubating in the absence or presence of liproxstatin-1 (100 nM), ferrostatin-1 (200 nM), or deferoxamine (100 μM). Cell viability was assessed after 16 h using AquaBluer as an indicator of viable cells according to the manufacturer's recommendations (MultiTarget Pharmaceuticals, LLC). Fluorescence (excitation, 540 nm; emission, 590 nm) was analyzed on a Clariostar microplater reader.
In order to test concentration-dependent toxicity of treatment with FIN56 and either CPBA or iFSP1, we treated mouse embryonic fibroblasts (MEFs, see FIG. 21A), or Hepa 1-6 mouse hepatocellular carcinoma cells (see FIG. 21B) with DMSO solvent control, or with the indicated concentrations of CPBA or iFSP1. Ferroptotic cell death was assessed by incubation in the absence or presence of liproxstatin-1 (lip-1; A, 500 nM; B, 250 nM).

SMILES	inhibition of murine FSP1 activity (murine FSP1)	inhibition of human FSP1 activity (human FSP1)	sensitization to FIN56-induced ferroptosis in mouse cells [1]	concentrations that are non-specifically toxic to cells ([1]; 16 h) [µM]
O=C(Nc1ccccc1C(=O)O)c1ccc(Oc2ccc(C(=O)Nc3ccccc3C(=O)O)cc2)cc1 [CPBA, 2-[[4-[4-[(2-carboxyphenyl)carbamoyl]phenoxy]benzoyl]amino]-benzoic acid]	inhibits human and murine FSP1 activity; also recorded: much more effective inhibition of murine FSP1 by CPBA compared to iFSP1	inhibits human and murine FSP1 activity	sensitizes MEFs or Hepa 1-6 cells to FIN56-induced ferroptosis	
Cc1ccc(-c2c(C#N)c(N)n3c(nc4ccccc43)c2C#N)cc1 [iFSP1, reference compound]	has no effect on mFSP1; also recorded: much less active against murine FSP1	is an inhibitor of human FSP1	does not have an effect on mouse cell lines	> 10
